Results taken from US20120180807A1, “Method for Chemically Modifying the Internal Region of a Hair Shaft” (priority 2011, published 2012).

Assay: Water solubility / dissolving of monomer and polymer (other in-vitro-experiments)
Assay type: physicochemical
Source text: However, dissolving polymer, once it had been dried, takes considerably longer (some hours) than dissolving dry monomer (some seconds). […] All the 20 hair fibres of each sample without H2O2 pre-treatment lost their radioactivity of the cuticle area by washing, whereas all the other samples kept it.

With C=CC(=O)OCCCS(=O)(=O)O [3-SPA, 3-sulfopropylacrylate] the water solubility was “water soluble” and the “time for dissolving in water” value (dry / once dried material) was “some seconds”.
